In ChEMBL document CHEMBL3217439, “Deciphering intracellular targets of organochalcogen based redox catalysts” (Medchemcomm, 2012) one finds Activity, IC50 and inhibition data, which are given here for 4 compounds.

As a reminder, the IC50 is the midpoint of a concentration-inhibition curve. Higher therefore signals weaker potency.

Test [1] addresses T1, Tubulin (Sus scrofa) (UniProt P02554+P02550). In words: Binding affinity to pig brain tubulin after 2 hrs by DARTS-Western blot method. The test is classed as tissue-based. (In general: In western blotting, separated proteins are transferred to a membrane and probed.)
The nature of test [2]: Depletion of microtubules in Potorous tridactylus PtK2 cells at IC90 by microscopy. The test is classed as cell-based.
Test [3] relates to Escherichia coli. Put plainly: Antimicrobial activity against Escherichia coli expressing tolC after 1 to 2 days by agar diffusion assay. The test is classed as functional, organism-based. For orientation: Agar diffusion results depend on both activity and mobility in agar.
For test [4], the system named is A-431. In words: Induction of apoptosis in human A431 cells assessed as caspase3/7 activation at 2.6 uM after 5 to 25 mins by luminescence assay. The test is classed as functional, cell-based.
Another test relates to Micrococcus luteus. Put plainly: Antimicrobial activity against Micrococcus luteus after 1 to 2 days by agar diffusion assay. The format is functional, organism-based.
In another test the test system is Mycolicibacterium phlei. Put plainly: Antimicrobial activity against Mycobacterium phlei after 1 to 2 days by agar diffusion assay. The test is classed as functional, organism-based.
A short description of test [5]: Cytotoxicity against human KB3-1 cells after 18 hrs by MTT assay. To be noted: KB 3-1, 18 h. The format is functional, cell-based.
The subject of another test is Aspergillus niger. In words: Antimicrobial activity against Aspergillus niger after 1 to 2 days by agar diffusion assay. The test is classed as functional, organism-based.
In test [6] the target is T1, Tubulin (Sus scrofa). In words: Binding affinity to pig brain tubulin at IC90 after 2 hrs by DARTS-Western blot method.
Test [7] is filed under the species Oryctolagus cuniculus. Put plainly: Binding affinity to rabbit actin polymerization after 2 hrs by DARTS-Western blot method.
For test [8], the species on record is Oryctolagus cuniculus. Put plainly: Binding affinity to rabbit actin polymerization at IC90 after 2 hrs by DARTS-Western blot method.
The test system of test [9] is HUVEC. Put plainly: Cytotoxicity against HUVEC after 18 hrs by MTT assay. The test is classed as functional, cell-based. To be noted: Homo sapiens.
A short description of test [10]: Depletion of actin filaments in Potorous tridactylus PtK2 cells at IC90 by microscopy. The test is classed as cell-based.
In test [11] the test system is HUVEC. In words: Increase in ROS production in HUVEC at after 1 hr by DHE assay. The settings on record: Homo sapiens. The test is classed as functional, cell-based.
For test [12], the system named is A-431. Put plainly: Increase in ROS production in human A431 cells at after 1 hr by DHE assay. The format is functional, cell-based.
For test [13], the system named is HUVEC. Put plainly: Increase in ROS production in HUVEC at after 1 hr by DCF assay. The test is classed as functional, cell-based. The settings on record: Homo sapiens.
For test [14], the system named is A-431. Put plainly: Reduction in ATP level in human A431 cells assessed as cell viability after 10 mins by Cell Titer Glo luminescent assay. The test is classed as functional, cell-based. For orientation: ATP-based viability assays read luminescence as a measure of living cells.
For a further test, the system named is L929. Put plainly: Cytotoxicity against mouse L929 cells after 18 hrs by MTT assay. The format is functional, cell-based. To be noted: L929, 18 h.
The subject of the next test is Staphylococcus aureus. Put plainly: Antimicrobial activity against Staphylococcus aureus after 1 to 2 days by agar diffusion assay. The test is classed as functional, organism-based.
The subject of another test is Klebsiella pneumoniae. In words: Antimicrobial activity against Klebsiella pneumoniae after 1 to 2 days by agar diffusion assay. The test is classed as functional, organism-based.
The subject of the next test is HCT-116. Put plainly: Cytotoxicity against human HCT116 cells after 18 hrs by MTT assay. The format is functional, cell-based. The settings on record: HCT-116, 18 h.
Test [15] has as its system Escherichia coli. In words: Antimicrobial activity against Escherichia coli A1 after 1 to 2 days by agar diffusion assay. The format is functional, organism-based.
For test [16], the system named is A-431. Put plainly: Induction of apoptosis in human A431 cells at 12 ug/ml after 16 hrs using annexin V/propidium iodide by flow cytometry. The format is functional, cell-based.
Test [17] has as its system Globisporangium debaryanum. Put plainly: Antimicrobial activity against Pythium debaryanum after 1 to 2 days by agar diffusion assay. The format is functional, organism-based.
The subject of a further test is Pseudomonas aeruginosa. Put plainly: Antimicrobial activity against Pseudomonas aeruginosa after 1 to 2 days by agar diffusion assay. The format is functional, organism-based.
Test [18] can be described thus: Inhibition of rabbit actin polymerization by spectrophotometry. On the set-up: species or system Oryctolagus cuniculus.
For another test, the system named is Wickerhamomyces anomalus. Put plainly: Antimicrobial activity against Hansenula anomala after 1 to 2 days by agar diffusion assay. The format is functional, organism-based.
Test [19] has as its system A-431. Put plainly: Increase in ROS production in human A431 cells at after 1 hr by DCF assay. The test is classed as functional, cell-based.
The next test concerns Botrytis cinerea. Put plainly: Antimicrobial activity against Botrytis cinerea after 1 to 2 days by agar diffusion assay. The test is classed as functional, organism-based.
Test [20] in a line: Cytotoxicity against Potorous tridactylus PtK2 cells after 18 hrs by MTT assay. The format is functional, cell-based. To be noted: PtK2, 18 h.
The target of the next test is Tubulin (Sus scrofa, UniProt P02554+P02550). In words: (§1) Inhibition of pig brain tubulin polymerization by spectrophotometry.
Test [21] concerns A-431. Put plainly: Cytotoxicity against human A431 cells after 18 hrs by MTT assay. To be noted: A-431, 18 h. The format is functional, cell-based.
Test [22] has as its system A-431. In words: Induction of apoptosis in human A431 cells at 10 ug/ml after 16 hrs using annexin V/propidium iodide by flow cytometry. The format is functional, cell-based.
The species entered for test [23] is Oryctolagus cuniculus. Put plainly: Binding affinity to rabbit actin polymerization at IC50 after 2 hrs by DARTS-Western blot method.
Test [24] has as its target T1, Tubulin (Sus scrofa). In words: Binding affinity to pig brain tubulin at IC50 after 2 hrs by DARTS-Western blot method.
Test [25] addresses T1, Tubulin (Sus scrofa). The test is described as §1.

Active and inactive are the calls of the source. The calls are words filed in the database; no cut-off is given here.

T1 sequence (P02550 whole entry, looked up): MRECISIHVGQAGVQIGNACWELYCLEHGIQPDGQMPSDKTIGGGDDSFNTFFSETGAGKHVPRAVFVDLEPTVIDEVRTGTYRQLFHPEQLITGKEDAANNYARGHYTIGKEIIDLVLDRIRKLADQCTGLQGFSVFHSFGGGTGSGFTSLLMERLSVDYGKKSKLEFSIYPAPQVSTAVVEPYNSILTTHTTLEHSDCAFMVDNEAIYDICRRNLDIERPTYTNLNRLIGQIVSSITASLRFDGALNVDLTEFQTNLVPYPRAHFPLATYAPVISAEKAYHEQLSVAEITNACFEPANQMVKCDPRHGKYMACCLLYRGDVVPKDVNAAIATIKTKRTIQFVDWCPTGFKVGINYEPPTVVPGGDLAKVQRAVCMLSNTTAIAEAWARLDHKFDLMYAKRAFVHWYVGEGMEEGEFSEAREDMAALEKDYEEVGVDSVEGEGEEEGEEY
T1 sequence (P02554 whole entry, looked up): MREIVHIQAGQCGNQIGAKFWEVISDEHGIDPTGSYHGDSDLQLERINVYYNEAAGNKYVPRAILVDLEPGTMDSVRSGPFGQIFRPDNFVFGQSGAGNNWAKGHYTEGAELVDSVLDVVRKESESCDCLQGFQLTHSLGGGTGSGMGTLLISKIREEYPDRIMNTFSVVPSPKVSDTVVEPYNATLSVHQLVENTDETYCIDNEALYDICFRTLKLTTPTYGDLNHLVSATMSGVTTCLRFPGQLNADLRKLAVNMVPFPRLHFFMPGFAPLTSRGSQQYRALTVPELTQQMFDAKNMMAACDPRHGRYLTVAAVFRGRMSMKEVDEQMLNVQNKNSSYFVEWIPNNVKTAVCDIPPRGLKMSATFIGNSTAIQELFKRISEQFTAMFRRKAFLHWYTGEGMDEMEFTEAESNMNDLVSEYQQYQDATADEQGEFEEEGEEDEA

As to `CC[C@@H](C)[C@H](NC(=O)[C@H]1CCCCN1C)C(=O)N(COC(=O)CC(C)C)[C@H](C[C@@H](OC(C)=O)c1nc(C(=O)N[C@@H](Cc2ccc(O)cc2)C[C@H](C)C(=O)O)cs1)C(C)C`, the result at Tubulin (Sus scrofa) [1] was Active.
Consider `CC1=C([Te]c2ccccc2)C(=O)c2ccccc2C1=O`, for which the outcome (in test [2]; in the test on Escherichia coli [3]; with A-431 [4]; with Micrococcus luteus; in the test with Mycolicibacterium phlei; in the test with Aspergillus niger) was Active. For the same compound, the result (on Tubulin (Sus scrofa) [6]; in the test listed under Oryctolagus cuniculus [8]; in test [10]; in the test with A-431 [14]; with Staphylococcus aureus; in the test on Klebsiella pneumoniae) was Active. Further, the result (in the test with Escherichia coli [15]; in the test with A-431 [16]; in [17]; in the test with Wickerhamomyces anomalus; in the test with Botrytis cinerea; in the test with A-431 [22]) was Active. For the same compound, the IC50 was 1.3 µM in test [5]; 9.5 µM with HUVEC [9]; 11 µM in the test on L929; 5.3 µM in the test with HCT-116; 30 µM in test [18]; 9 µM in test [20]. Further, the values for the IC50 against Tubulin and with A-431 [21] were 15 µM and 5 µM, respectively. In addition, the Activity entry in the test filed under Oryctolagus cuniculus [7], with HUVEC [11], with A-431 [12], in the test on HUVEC [13], in the test with A-431 [19] and on Tubulin (Sus scrofa) [1] was “Dose-dependent effect” each time. For the same compound, in the test with Pseudomonas aeruginosa, the result was inactive.
On to `O=C1C([Te]c2ccccc2)=C([Te]c2ccccc2)C(=O)c2ccccc21`, for which the result (in [2]; in the test with Pseudomonas aeruginosa; at Tubulin (Sus scrofa) [24]) was inactive. For the same compound, the outcome (with Escherichia coli [3]; in the test with A-431 [4]; in the test with Micrococcus luteus; in the test with Mycolicibacterium phlei; in the test on Aspergillus niger; in [10]) was Active. In addition, the outcome (with A-431 [14]; in the test with Staphylococcus aureus; in the test with Klebsiella pneumoniae; in the test on Escherichia coli [15]; with A-431 [16]; in test [17]) was Active. Also, the outcome in the test with Wickerhamomyces anomalus, in the test filed under Oryctolagus cuniculus [23], in the test with Botrytis cinerea and in the test with A-431 [22] was Active. Besides, the IC50 in [5] is 0.25 µM; in the test with HUVEC [9] it was 5.1 µM; in the test on L929, 5.8 µM; with HCT-116, 5.4 µM; in [18], 30 µM; in [20], 7.2 µM. Moreover, the IC50 in the test on A-431 [21] turned out to be 4.4 µM. The Activity result in the test with HUVEC [11], in the test on A-431 [12], in the test on HUVEC [13] and in the test on A-431 [19] was “Dose-dependent effect” throughout. Moreover, the inhibition result on Tubulin (Sus scrofa) [25] is “inactive”.
On to `COC1CC(O)/C=C/C=C/C=C\C(C)C(C(C)C(O)CC(C)O)OC(=O)/C=C/C=C/C=C/C(C)=C/C(C)C(O[C@H]2O[C@H](C)[C@@H](O)[C@H](OC)[C@H]2OC)/C=C\C=C\c2coc(n2)C1C` (stereo partly specified), for which the outcome in the test listed under Oryctolagus cuniculus [23] was Active.
